Data from EP4623918A1, “AGENT FOR INCREASING BRAIN PLASMALOGEN, AND USE OF ORAL COMPOSITION AND COMPOUND FOR INCREASING BRAIN PLASMALOGEN” (Institute of Rheological Function of Food Co., Ltd., priority 2022, dated 2024).

Legend:
MeCP2-deficient mice = assay: Effect of KIT-13 on brain plasmalogen in cerebral cortex tissue lysate (LC-MS/MS), MeCP2-deficient mice; assay type: in vivo; details: male MeCP2-deficient mice, 20 ng/g body weight twice a week by drinking-water administration for three weeks, vs control group given water
Procedure: Four-week-old male MeCP2-deficient mice lacking the MeCP2 gene on the X chromosome were used in the test. The MeCP2-deficient mice were divided into two groups: a control group (MeCP2-KO) and a KIT-13 administration group (KIT-13).
For the KIT-13 administration group, KIT-13 was suspended in water by ultrasonication, and administered twice a week by drinking-water administration such that 20 ng/g body weight of KIT-13 was taken. In contrast, the control group was given only water in a similar manner. KIT-13 was administered for three weeks until the mice were seven weeks old, and the cerebral cortex was collected from the brains of the mice.
(§1) The collected cerebral cortex was homogenized in a lysate (0.25 M sucrose, 10 mM HEPES-KOH (pH 7.4), 1 mM EDTA, and a protease inhibitor cocktail) to prepare a tissue lysate (25 µg protein). To the tissue lysate in a sample tube, 400 µL of MeOH and 100 µL of internal standard IS (C12 phosphatidylethanolamine (PE) and C12 phosphatidylcholine (PC)) dissolved in chloroform/methanol (C:M=1:2) were added and then mixed. The resulting mixture was transferred to a glass tube. […] Thereafter, the sample was dried under nitrogen gas, dissolved in MeOH, and analyzed using liquid chromatography-mass spectrometry (LC-MS/MS). […]

[1] = tested on: wild-type mice (male, C57BL/6J mice); assay: Effect of KIT-13 on cerebral cortex PlsEtn (LC-MS/MS), wild-type mice; assay type: in vivo; details: wild-type male C57BL/6J mice; KIT-13 given as in Example 2 for four weeks; control group taken as 1; FIG. 2
Procedure: For the KIT-13 administration group, KIT-13 was suspended in water by ultrasonication, and administered twice a week by drinking-water administration such that 20 ng/g body weight of KIT-13 was taken. In contrast, the control group was given only water in a similar manner. […]
as §1, with “tube. Then, 200 µL of MeOH was added again to the sample tube, and after the same operation, the resulting mixture was transferred to the glass tube. To the sample, 1.2 mL of C/M (1:1) was added, mixed, sonicated for 5 minutes, and left to stand for 60 minutes.” for “tube.”
Four-week-old wild-type mice (male, C57BL/6J mice, manufactured by the Jackson Laboratory Japan, Inc.) were divided into two groups: a control group and a KIT-13 administration group. […] PlsEtn in the collected cerebral cortex was quantified as with Example 2.

CCCCCC=CCC=CCC=CCC=CCCCC(=O)OC(COCCCCCCCCCCCCCCCCCC)COP(=O)(O)OCCN [KIT-13, 2-(hydroxy((R)-2-(((5Z,8Z,11Z,14Z)-icosa-5,8,11,14-tetraenoyl)oxy)-3-(octadedecyloxy)propoxy)phosphoryl)oxy)ethane-1-ammonium 2,2,2-trifluoroacetate]
significantly increased: concentration of PlsEtn in the tissue lysate (MeCP2-deficient mice; p < 0.05, FIG. 1A) | concentration of PlsEtn in which the sn-1 position is a saturated aliphatic hydrocarbon group having 18 carbon atoms (PlsEtn-C18:0), in the tissue lysate (MeCP2-deficient mice; p < 0.05, FIG. 1B) | relative PlsEtn amount in the cerebral cortex [1]
